# Data as given in PubChem BioAssay AID2060512 (Molecular Pharmacology Branch, DTP, NCI, 2025).
# Tested on: 186277-243-T-J2-PDC complex spheroid viability
# Test: Anticancer human tumor 186277-243-T-J2-PDC patient-derived colon adenocarcinoma cell line growth inhibition [GQUAD]
# Conditions: for IC50: curve of first compound; for viability, T/C: stronger effect = lower value
# How it was run: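 Tumor cells were grown as complex spheroids with HUVEC endothelial cells and mesenchymal stem cells as stroma. G-quadruplex stabilizers were combined with targeted agents over half-log dilutions from near the clinical Cmax, or from 10 microM.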
# [1] = second compound 0.0316 µM, first compound 0.0316 µM
# [2] = second compound 0.0316 µM, first compound 0.1 µM
# [3] = second compound 0.0316 µM, first compound 0.316 µM
# [4] = second compound 0.0316 µM, first compound 1 µM
# [5] = second compound 0.0316 µM, first compound 3.16 µM
# [6] = second compound 0.0316 µM, first compound 10 µM
# [7] = second compound 0.1 µM, first compound 0.0316 µM
# [8] = second compound 0.1 µM, first compound 0.1 µM
# [9] = second compound 0.1 µM, first compound 0.316 µM
# [10] = second compound 0.1 µM, first compound 1 µM
# [11] = second compound 0.1 µM, first compound 3.16 µM
# [12] = second compound 0.1 µM, first compound 10 µM
# [13] = second compound 0.316 µM, first compound 0.0316 µM
# [14] = second compound 0.316 µM, first compound 0.1 µM
# [15] = second compound 0.316 µM, first compound 0.316 µM
# [16] = second compound 0.316 µM, first compound 1 µM
# [17] = second compound 0.316 µM, first compound 3.16 µM
# [18] = second compound 0.316 µM, first compound 10 µM
# [19] = second compound 1 µM, first compound 0.0316 µM
# [20] = second compound 1 µM, first compound 0.1 µM
# [21] = second compound 1 µM, first compound 0.316 µM
# [22] = second compound 1 µM, first compound 1 µM
# [23] = second compound 1 µM, first compound 3.16 µM
# [24] = second compound 1 µM, first compound 10 µM
# [25] = second compound 3.16 µM, first compound 0.0316 µM
# [26] = second compound 3.16 µM, first compound 0.1 µM
# [27] = second compound 3.16 µM, first compound 0.316 µM
# [28] = second compound 3.16 µM, first compound 1 µM
# [29] = second compound 3.16 µM, first compound 3.16 µM
# [30] = second compound 3.16 µM, first compound 10 µM
# [31] = second compound 10 µM, first compound 0.0316 µM
# [32] = second compound 10 µM, first compound 0.1 µM
# [33] = second compound 10 µM, first compound 0.316 µM
# [34] = second compound 10 µM, first compound 1 µM
# [35] = second compound 10 µM, first compound 3.16 µM
# [36] = second compound 10 µM, first compound 10 µM
# 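Further: spheroids exposed to drugs for 7 days.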
# 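Wherever viability, T/C is given: 100% = DMSO vehicle control viability.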
compound,measurement,setting,value
O=C(NO)c1cnc(N2CCN(S(=O)(=O)c3ccc4ccccc4c3)CC2)nc1 + Cc1cnc(CNC(=O)c2c(=O)c3ccc(N4CCCN(C)CC4)nc3n3c2sc2ccccc23)cn1,IC50,second compound 0.0316 µM,148 nM
same,IC50,second compound 0.1 µM,102 nM
same,IC50,second compound 0.316 µM,61.9 nM
same,IC50,second compound 1 µM,< 31.6 nM
same,IC50,second compound 3.16 µM,< 31.6 nM
same,IC50,second compound 10 µM,< 31.6 nM
same,"viability, T/C",[1],96.1%
same,"viability, T/C",[2],71.1%
same,"viability, T/C",[3],9.06%
same,"viability, T/C",[4],0.26%
same,"viability, T/C",[5],0.12%
same,"viability, T/C",[6],0.12%
same,"viability, T/C",[7],66.5%
same,"viability, T/C",[8],50.9%
same,"viability, T/C",[9],9.09%
same,"viability, T/C",[10],0.28%
same,"viability, T/C",[11],0.09%
same,"viability, T/C",[12],0.1%
same,"viability, T/C",[13],64.5%
same,"viability, T/C",[14],39.7%
same,"viability, T/C",[15],8.31%
same,"viability, T/C",[16],0.44%
same,"viability, T/C",[17],0.08%
same,"viability, T/C",[18],0.1%
same,"viability, T/C",[19],40.2%
same,"viability, T/C",[20],34.2%
same,"viability, T/C",[21],8.56%
same,"viability, T/C",[22],0.11%
same,"viability, T/C",[23],0.08%
same,"viability, T/C",[24],0.1%
same,"viability, T/C",[25],33.3%
same,"viability, T/C",[26],24.1%
same,"viability, T/C",[27],0.15%
same,"viability, T/C",[28],0.1%
same,"viability, T/C",[29],0.1%
same,"viability, T/C",[30],0.12%
same,"viability, T/C",[31],34.2%
same,"viability, T/C",[32],19.8%
same,"viability, T/C",[33],0.24%
same,"viability, T/C",[34],0.14%
same,"viability, T/C",[35],0.16%
same,"viability, T/C",[36],0.18%
COc1cccc2c1C(=O)c1c(O)c3c(c(O)c1C2=O)CC(O)(C(=O)CO)CC3OC1CC(N)C(O)C(C)O1 (stereo unspecified) + Cc1[nH]c2ccc(F)cc2c1-c1nc2c3cccnc3c3ncccc3c2[nH]1,IC50,second compound 0.0316 µM,696 nM
same,IC50,second compound 0.1 µM,511 nM
same,IC50,second compound 0.316 µM,686 nM
same,IC50,second compound 1 µM,674 nM
same,IC50,second compound 3.16 µM,623 nM
same,IC50,second compound 10 µM,667 nM
same,"viability, T/C",[1],104%
same,"viability, T/C",[2],99.2%
same,"viability, T/C",[3],95.9%
same,"viability, T/C",[4],28.9%
same,"viability, T/C",[5],5.65%
same,"viability, T/C",[6],0.19%
same,"viability, T/C",[7],117%
same,"viability, T/C",[8],88.9%
same,"viability, T/C",[9],70.5%
same,"viability, T/C",[10],29.5%
same,"viability, T/C",[11],0.54%
same,"viability, T/C",[12],0.13%
same,"viability, T/C",[13],96.1%
same,"viability, T/C",[14],116%
same,"viability, T/C",[15],81.4%
same,"viability, T/C",[16],34.9%
same,"viability, T/C",[17],0.6%
same,"viability, T/C",[18],0.26%
same,"viability, T/C",[19],104%
same,"viability, T/C",[20],96.3%
same,"viability, T/C",[21],85.5%
same,"viability, T/C",[22],32%
same,"viability, T/C",[23],0.77%
same,"viability, T/C",[24],0.15%
same,"viability, T/C",[25],84.7%
same,"viability, T/C",[26],92.1%
same,"viability, T/C",[27],75%
same,"viability, T/C",[28],32.4%
same,"viability, T/C",[29],1.37%
same,"viability, T/C",[30],0.86%
same,"viability, T/C",[31],90.4%
same,"viability, T/C",[32],98%
same,"viability, T/C",[33],81.5%
same,"viability, T/C",[34],32.8%
same,"viability, T/C",[35],1.17%
same,"viability, T/C",[36],0.68%
CC(C)(O)C1CCC(Nc2ccc3ncc(-c4cccc(C(F)(F)F)c4)n3n2)CC1 (stereo unspecified) + CN(C)c1ccc(Nc2c3ccc(NC(=O)CCN4CCCC4)cc3nc3cc(NC(=O)CCN4CCCC4)ccc23)cc1,IC50,second compound 0.0316 µM,2700 nM
same,IC50,second compound 0.1 µM,4050 nM
same,IC50,second compound 0.316 µM,2780 nM
same,IC50,second compound 1 µM,5190 nM
same,IC50,second compound 3.16 µM,2890 nM
same,IC50,second compound 10 µM,3530 nM
same,"viability, T/C",[1],103%
same,"viability, T/C",[2],84.8%
same,"viability, T/C",[3],113%
same,"viability, T/C",[4],92.4%
same,"viability, T/C",[5],42.7%
same,"viability, T/C",[6],44%
same,"viability, T/C",[7],98.8%
same,"viability, T/C",[8],89.1%
same,"viability, T/C",[9],91.4%
same,"viability, T/C",[10],92.1%
same,"viability, T/C",[11],51.6%
same,"viability, T/C",[12],44.1%
same,"viability, T/C",[13],107%
same,"viability, T/C",[14],92.7%
same,"viability, T/C",[15],108%
same,"viability, T/C",[16],92.3%
same,"viability, T/C",[17],44.9%
same,"viability, T/C",[18],36%
same,"viability, T/C",[19],93.1%
same,"viability, T/C",[20],99.5%
same,"viability, T/C",[21],85.7%
same,"viability, T/C",[22],92%
same,"viability, T/C",[23],56.2%
same,"viability, T/C",[24],41.7%
same,"viability, T/C",[25],93.1%
same,"viability, T/C",[26],93.5%
same,"viability, T/C",[27],108%
same,"viability, T/C",[28],81.6%
same,"viability, T/C",[29],48.2%
same,"viability, T/C",[30],27.6%
same,"viability, T/C",[31],133%
same,"viability, T/C",[32],107%
same,"viability, T/C",[33],96.7%
same,"viability, T/C",[34],98.2%
same,"viability, T/C",[35],41.4%
same,"viability, T/C",[36],22.8%
